Assay results as given in PMC2766550 (Peptides, 2009).
Square brackets hold non-standard residues; d marks the D form. Ends that are not written are not given here. Peptide text beside a SMILES is read from it. * marks the point of attachment. dPhe(F5) = N[C@H](Cc1c(F)c(F)c(F)c(F)c1F)C(=O)O; pGlu = O=C1CC[C@@H](C(=O)O)N1; Nle = CCCC[C@H](N)C(=O)O; βAla = NCCC(=O)O; NHPr = CCCN*

Assays:
[1] = biological target: T1, hNMB-receptor (Homo sapiens, UniProt P28336); assay: Whole cell radioligand binding, hNMB-receptor transfected Balb 3T3 cells; settings: IC50 hNMB-R Balb-3T3, hNMB-receptor transfected Balb 3T3 cells; 125I-[D-Tyr0]NMB, 1 h, 22°C; mean ± S.E.
[2] = biological target: T2, hBRS-3 receptor (Homo sapiens, UniProt P32247); assay: Whole cell radioligand binding, hBRS-3 transfected Balb 3T3 cells
T2 sequence (P32247 1-399): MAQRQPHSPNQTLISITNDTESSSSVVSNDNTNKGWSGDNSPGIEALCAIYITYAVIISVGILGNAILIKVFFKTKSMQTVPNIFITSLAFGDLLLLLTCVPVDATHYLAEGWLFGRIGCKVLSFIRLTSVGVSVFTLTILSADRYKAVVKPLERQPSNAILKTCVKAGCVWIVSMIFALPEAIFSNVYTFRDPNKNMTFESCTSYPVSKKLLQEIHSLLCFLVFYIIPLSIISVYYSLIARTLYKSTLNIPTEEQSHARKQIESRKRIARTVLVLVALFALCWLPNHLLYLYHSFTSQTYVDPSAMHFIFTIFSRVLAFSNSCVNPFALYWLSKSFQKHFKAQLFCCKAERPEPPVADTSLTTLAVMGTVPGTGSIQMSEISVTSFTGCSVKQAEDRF

[3] = biological target: T3, hGRP-receptor (Homo sapiens, UniProt P30550); assay: Whole cell radioligand binding, HuTu-80 cells
[4] = biological target: T1, hNMB-receptor; assay: Whole cell radioligand binding, hNMB-receptor transfected NCI-H1299 cells
[5] = biological target: T3, hGRP-receptor; assay: [3H]inositol phosphate generation, hGRP-receptor transfected Balb 3T3 cells; assay type: cell-based
[6] = biological target: T3, hGRP-receptor; assay: [3H]inositol phosphate generation, HuTu-80 cells; assay type: cell-based
[7] = biological target: T1, hNMB-receptor; assay: cell-based; settings: for [3H]IP NCI-H1299 (hNMB-R) EC50: stimulation of [3H]IP generation
[8] = biological target: T3, hGRP-receptor; assay: Whole cell radioligand binding, hGRP-receptor transfected Balb 3T3 cells; settings: b34 values for receptors expressed in Balb 3T3 cells

T1 sequence (P28336 whole entry): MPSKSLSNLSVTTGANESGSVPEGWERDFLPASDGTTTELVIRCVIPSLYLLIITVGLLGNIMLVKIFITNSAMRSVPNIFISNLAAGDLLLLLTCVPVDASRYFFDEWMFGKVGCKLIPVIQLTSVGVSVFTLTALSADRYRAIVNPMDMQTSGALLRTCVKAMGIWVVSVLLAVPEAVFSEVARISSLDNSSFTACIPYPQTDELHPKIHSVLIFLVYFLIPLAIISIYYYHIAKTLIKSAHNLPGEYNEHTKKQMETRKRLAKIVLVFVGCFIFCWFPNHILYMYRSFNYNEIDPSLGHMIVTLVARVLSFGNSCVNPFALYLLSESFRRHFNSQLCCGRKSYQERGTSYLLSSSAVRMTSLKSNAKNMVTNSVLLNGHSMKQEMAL
T3 sequence (P30550 whole entry): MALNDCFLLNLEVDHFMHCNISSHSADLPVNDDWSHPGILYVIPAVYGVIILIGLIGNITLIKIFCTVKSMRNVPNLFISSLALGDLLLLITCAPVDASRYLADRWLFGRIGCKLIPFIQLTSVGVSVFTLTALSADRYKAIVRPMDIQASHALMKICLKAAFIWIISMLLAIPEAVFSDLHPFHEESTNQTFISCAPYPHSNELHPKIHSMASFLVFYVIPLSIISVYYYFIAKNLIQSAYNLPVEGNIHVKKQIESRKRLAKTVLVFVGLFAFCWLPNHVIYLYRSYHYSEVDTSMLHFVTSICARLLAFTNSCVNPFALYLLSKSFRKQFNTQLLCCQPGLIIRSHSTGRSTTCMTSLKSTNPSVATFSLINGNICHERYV

Molecule: CCCC[C@H](NC(=O)[C@H](Cc1ccccc1)NC(=O)[C@H](Cc1cnc[nH]1)NC(=O)CCNC(=O)[C@@H](NC(=O)[C@H](C)NC(=O)[C@H](Cc1c[nH]c2ccccc12)NC(=O)[C@H](CCC(N)=O)NC(=O)[C@H](N)Cc1ccc(O)cc1)C(C)C)C(N)=O [Peptide 35, [D-Tyr^6, β-Ala^11,Phe^13, Nle^14]Bn-(6-14), reference compound] (H-[dY]QWAV[βAla]HF[Nle]-NH2)
- IC50 [1]: 0.00031 ± 1e-05 µM
- IC50 [2]: 0.00055 ± 3e-05 µM

Molecule: CC(C)C[C@H](NC(=O)[C@H](CC(C)C)NC(=O)[C@@H](Cc1c[nH]c2ccccc12)NC(=O)[C@H](Cc1ccccc1)NC(=O)[C@@H](Cc1c[nH]c2ccccc12)NC(=O)[C@H](CCC(N)=O)NC(=O)[C@H](CCC(N)=O)NC(=O)[C@@H]1CCCN1C(=O)[C@H](CCCCN)NC(=O)[C@@H]1CCCN1C(=O)[C@H](N)CCCN=C(N)N)C(N)=O [Peptide 3, [D-Arg^1, D-Trp^7,9, Leu^11]SP] (H-[dR]PKPQQ[dW]F[dW]LL-NH2)
- IC50 [3]: 1.78 ± 0.05 µM
- IC50 [1]: 4.48 ± 0.86 µM
- IC50 [4]: 1.59 ± 0.03 µM
- IC50 [2]: > 10 µM
- IC50 [5]: 1.58 ± 0.081 µM
- IC50 [6]: 8.31 ± 0.154 µM
- IC50 [7]: 2.34 ± 0.08 µM

Molecule: CCCNC(=O)[C@H](CC(C)C)NC(=O)[C@H](Cc1c[nH]cn1)NC(=O)CNC(=O)[C@@H](NC(=O)[C@H](C)NC(=O)[C@H](Cc1c[nH]c2ccccc12)NC(=O)[C@H](CCC(N)=O)NC(=O)[C@H](N)Cc1ccccc1)C(C)C [Peptide 11, [D-Phe^6-Bn](6-13)Propylamide (PA)]
- selectivity for hGRP-receptor over hNMB-receptor (binding affinities) [8]: ≥ 1,000 fold
- IC50 [3]: 0.00039 ± 0.00012 µM
- IC50 [1]: 2.44 ± 0.16 µM
- IC50 [4]: 3.09 ± 0.07 µM
- IC50 [2]: 1.91 ± 0.3 µM
- IC50 [5]: 0.031 ± 0.001 µM
- IC50 [6]: 0.0363 ± 0.001 µM

Molecule: CCCNC(=O)[C@H](Cc1ccccc1)NC(=O)[C@H](Cc1c[nH]cn1)NC(=O)CNC(=O)[C@@H](NC(=O)[C@H](C)NC(=O)[C@H](Cc1c[nH]c2ccccc12)NC(=O)[C@H](CCC(N)=O)NC(=O)[C@H](N)Cc1ccccc1)[C@@H](C)O [Peptide 13, [D-Phe^6,Thr^10, Phe^13]Bn(6-13)PA] (H-[dF]QWATGHF-NHPr)
- IC50 [1]: 1.32 ± 0.03 µM
- IC50 [2]: > 10 µM

Molecule: CSCC[C@H](NC(=O)[C@H](CC(C)C)NC(=O)[C@@H](Cc1ccccc1)NC(=O)CNC(=O)[C@@H](NC(=O)[C@H](C)NC(=O)[C@H](Cc1c[nH]c2ccccc12)NC(=O)[C@H](CCC(N)=O)NC(=O)[C@H](CC(N)=O)NC(=O)CNC(=O)[C@H](Cc1ccc(O)cc1)NC(=O)[C@H](CCCNC(=N)N)NC(=O)[C@H](CCC(N)=O)NC(=O)[C@@H]1CCC(=O)N1)C(C)C)C(N)=O [Peptide 2, [Tyr^4, D-Phe^12]Bn]
- IC50 [3]: 0.912 ± 0.076 µM
- IC50 [1]: 3.09 ± 0.32 µM
- IC50 [4]: 1.86 ± 0.06 µM
- IC50 [2]: > 10 µM
- IC50 [5]: > 10 µM
- IC50 [6]: 8.13 ± 0.226 µM
- EC50 [7]: 0.103 ± 0.005 µM

Molecule: CCCCCCCNC(=O)[C@H](CC(C)C)NC(=O)[C@H](Cc1c[nH]cn1)NC(=O)CNC(=O)[C@@H](NC(=O)[C@H](C)NC(=O)[C@H](Cc1c[nH]c2ccccc12)NC(=O)[C@H](CCC(N)=O)NC(=O)[C@H](N)Cc1ccccc1)C(C)C [Peptide 16, [D-Phe^6]Bn(6-13)Heptylamide]
- IC50 [1]: 6.1 ± 0.63 µM
- IC50 [2]: > 10 µM

Molecule: CCCCCCNC(=O)[C@H](CC(C)C)NC(=O)[C@H](Cc1cnc[nH]1)NC(=O)CNC(=O)[C@@H](NC(=O)[C@H](C)NC(=O)[C@H](Cc1c[nH]c2ccccc12)NC(=O)[C@H](CCC(N)=O)NC(=O)[C@H](N)Cc1ccccc1)C(C)C [Peptide 15, [D-Phe^6]Bn-(6-13)Hexylamide]
- IC50 [3]: 0.00219 ± 4e-05 µM
- IC50 [1]: 8.14 ± 0.4 µM
- IC50 [4]: > 10 µM
- IC50 [2]: 3.25 ± 0.06 µM
- IC50 [5]: 0.38 ± 0.031 µM
- IC50 [6]: 0.204 ± 0.014 µM

Molecule: COC(=O)[C@H]1CCCN1C(=O)[C@H](Cc1c[nH]cn1)NC(=O)[C@@H](C)NC(=O)[C@@H](NC(=O)[C@H](C)NC(=O)[C@H](Cc1c[nH]c2ccccc12)NC(=O)[C@H](Cc1c[nH]cn1)NC(=O)[C@H](N)Cc1c(F)c(F)c(F)c(F)c1F)C(C)C [Peptide 19, [D-F-5-Phe^6, His^7, D-Ala^11, D-Pro^13]Bn(6-13)ME] (H-[dPhe(F5)]HWAV[dA]H[dP]-OMe)
- IC50 [1]: > 10 µM
- IC50 [2]: > 10 µM

Molecule: CC(C)C[C@H](NC(=O)[C@H](CC(C)C)NC(=O)[C@@H](Cc1c[nH]c2ccccc12)NC(=O)[C@H](Cc1ccccc1)NC(=O)[C@@H](Cc1c[nH]c2ccccc12)NC(=O)[C@H](CCC(N)=O)NC(=O)[C@H](CCC(N)=O)NC(=O)[C@@H]1CCCN1C(=O)[C@H](CCCCN)NC(=O)[C@@H]1CCCN1C(=O)[C@H](N)CCCNC(=N)N)C(N)=O [Peptide 3, [D-Arg^1, D-Trp^7,9, Leu^11]SP] (H-[dR]PKPQQ[dW]F[dW]LL-NH2)
- [3H]IP NCI-H1299 (hNMB-R) EC50 [7]: No act

Molecule: CCCNC(=O)[C@H](CC(C)C)NC(=O)[C@H](Cc1c[nH]cn1)NC(=O)CNC(=O)[C@@H](NC(=O)[C@H](C)NC(=O)[C@H](Cc1c[nH]c2ccccc12)NC(=O)[C@H](CCC(N)=O)NC(=O)[C@H](N)Cc1ccc(O)cc1)C(C)C [Peptide 12, [D-Tyr^6]Bn-(6-13)Propylamide (PA)]
- IC50 [3]: 0.00141 ± 6e-05 µM
- IC50 [1]: > 10 µM
- IC50 [4]: > 10 µM
- IC50 [2]: 1.9 ± 0.3 µM
- IC50 [5]: 0.275 ± 0.013 µM
- IC50 [6]: 0.0407 ± 0.0014 µM

Molecule: CC(C)C[C@H](NC(=O)[C@H](Cc1cnc[nH]1)NC(=O)CNC(=O)[C@@H](NC(=O)[C@H](C)NC(=O)[C@H](Cc1c[nH]c2ccccc12)NC(=O)[C@H](CCC(N)=O)NC(=O)[C@H](N)Cc1ccccc1)C(C)C)C(N)=O [Peptide 8, [D-Phe^6]Bn(6-13)NH2]
- IC50 [3]: 0.00493 ± 0.00039 µM
- IC50 [1]: > 10 µM
- IC50 [4]: > 10 µM
- IC50 [2]: > 10 µM
- IC50 [5]: 0.416 ± 0.008 µM
- IC50 [6]: 0.398 ± 0.011 µM
- IC50 [7]: > 10 µM

Molecule: CCCCNC(=O)[C@H](CC(C)C)NC(=O)[C@H](Cc1c[nH]cn1)NC(=O)CNC(=O)[C@@H](NC(=O)[C@H](C)NC(=O)[C@H](Cc1c[nH]c2ccccc12)NC(=O)[C@H](CCC(N)=O)NC(=O)[C@H](N)Cc1ccccc1)C(C)C [Peptide 14, [D-Phe^6]Bn(6-13)Butylamide (BA)]
- IC50 [3]: 0.00102 ± 9e-05 µM
- IC50 [1]: 3.11 ± 0.16 µM
- IC50 [4]: 1.78 ± 0.03 µM
- IC50 [2]: 0.692 ± 0.027 µM
- IC50 [5]: 0.0213 ± 0.0016 µM
- IC50 [6]: 0.0155 ± 0.002 µM

Molecule: CCNC(=O)[C@H](CC(C)C)NC(=O)[C@H](Cc1c[nH]cn1)NC(=O)CNC(=O)[C@@H](NC(=O)[C@H](C)NC(=O)[C@H](Cc1c[nH]c2ccccc12)NC(=O)[C@H](CCC(N)=O)NC(=O)[C@H](N)Cc1ccccc1)C(C)C [Peptide 10, [D-Phe^6]Bn(6-13)Ethylamide]
- IC50 [3]: 0.00222 ± 0.00013 µM
- IC50 [1]: > 10 µM
- IC50 [4]: > 10 µM
- IC50 [2]: > 10 µM
- IC50 [5]: 0.0525 ± 0.0043 µM
- IC50 [6]: 0.0436 ± 0.0036 µM

Molecule: NQWAVGHL-NH2 [Peptide 9, Bn(6-13)NH2]
- IC50 [1]: > 10 µM
- IC50 [2]: > 10 µM

Molecule: CSCC[C@H](NC(=O)[C@H](CC(C)C)NC(=O)[C@H](Cc1c[nH]cn1)NC(=O)CNC(=O)[C@@H](NC(=O)[C@H](C)NC(=O)[C@H](Cc1c[nH]c2ccccc12)NC(=O)[C@H](Cc1c[nH]cn1)NC(=O)[C@H](CC(N)=O)NC(=O)CNC(=O)[C@H](CCCNC(=N)N)NC(=O)[C@@H]1CCCN1C(=O)[C@H](Cc1ccc(O)cc1)NC(=O)[C@H](CCSC)NC(=O)[C@H](CCCCN)NC(=O)[C@@H](NC(=O)[C@H](CC(C)C)NC(=O)[C@@H](NC(=O)[C@@H](NC(=O)CNC(=O)CNC(=O)CNC(=O)[C@H](C)NC(=O)[C@@H]1CCCN1C(=O)[C@H](CC(C)C)NC(=O)[C@@H]1CCCN1C(=O)[C@@H](N)C(C)C)[C@@H](C)O)C(C)C)[C@@H](C)O)C(C)C)C(N)=O [GRP, gastrin-releasing peptide, reference compound]
- fold lower affinity for hBRS3 than for the ligand's own receptor [2]: > 10,000 fold

Molecule: CC(C)C[C@H](NC(=O)[C@H](CC(C)C)NC(=O)[C@@H](Cc1ccccc1)NC(=O)CNC(=O)[C@@H](NC(=O)[C@H](C)NC(=O)[C@H](Cc1c[nH]c2ccccc12)NC(=O)[C@H](CCC(N)=O)NC(=O)[C@H](CC(N)=O)NC(=O)CNC(=O)[C@H](CC(C)C)NC(=O)[C@H](CCCNC(=N)N)NC(=O)[C@H](CCC(N)=O)NC(=O)[C@@H]1CCC(=O)N1)C(C)C)C(N)=O [Peptide 1, [D-Phe^12, Leu^14]Bn] ([pGlu]QRLGNQWAVG[dF]LL-NH2)
- IC50 [1]: > 10 µM
- IC50 [2]: > 10 µM

Molecule: CSCC[C@H](NC(=O)[C@@H](Cc1c[nH]c2ccccc12)NC(=O)[C@@H](Cc1c[nH]c2ccccc12)NC(=O)[C@H](Cc1ccccc1)NC(=O)[C@@H](Cc1c[nH]c2ccccc12)NC(=O)[C@H](CCC(N)=O)NC(=O)[C@H](CCC(N)=O)NC(=O)[C@H]1CCCN1)C(N)=O [Peptide 4, [D-Pro^4, D-Trp^7,9,10]SP-(4-11)] (H-[dP]QQ[dW]F[dW][dW]M-NH2)
- IC50 [3]: > 10 µM
- IC50 [1]: > 10 µM
- IC50 [4]: > 10 µM
- IC50 [2]: 2.3 ± 0.4 µM
- IC50 [5]: > 3 µM
- IC50 [6]: > 3 µM
- IC50 [7]: 7.08 ± 0.344 µM
- [3H]IP NCI-H1299 (hNMB-R) EC50 [7]: No act
